# Measured values published in patent publication US3962449A, “Cardioactive bispidones and bispidines” (priority 1974, dated 1976).
# Like-named read-outs stand apart in the source and are kept apart here.
# Tests used:
# [1] = test system: experimentally induced heart rhythm disturbances (aconitine) in rats; assay: Aconitine-induced heart rhythm disturbances in rats, intravenous pre-treatment; type: in vivo, rat; conditions: for ED25 / ED50: Rattus norvegicus, iv; for occurrence of heart rhythm disturbances on pre-treatment: aconitine continuously infused intravenously
# Source text: If rats are continuously infused intravenously with aconitine, then serious disturbances of the cardiac rhythm such as extrasystole, ventricular tachycardia, and ventricular flutter, which finally lead to the death of the experimental animals, can be observed on an electrocardiogram. […] This experimental arrhythmic model is checked by means of clinically tested standard therapeutic compounds as to its reliability and is well suited for characterizing antiarrhythmical compounds in experiments on animals [cf. for example, Bianci et al., Arzneim.-Forsch. 18, 845- 850 (1968); Haas und Busch, Arzneim.-Forsch. 18, 401- 407 (1968); Haas et al., Arzneim.-Forsch.21, 1392- 1399 (1971); Marmo, Naunyn-Schmiedeberg's Arch. Pharmakol. 269, 231- 247 (1971); and Strubelt et al., Naunyn-Schmiedeberg's Arch. Pharmakol. 271, 346- 360 (1971.]
# The ED25 or ED50 are the intravenous dosages in mg/kg which allow an increase in administered aconitine doses, relative to the control, by 25 or 50%, respectively, before the occurrence of extrasystoles, ventricular tachycardia, and ventricular flutter.
# [2] = test system: left auricle of the heart of guinea pigs; assay: Functional refractory period and contractility of the isolated left auricle (paired electrical stimulation, adapted from Govier); type: cell-based, guinea pig; set-up: Anti-arrhythmic effect (Refractory period extension) ED25 / Inotropic effect (Contraction force lowering) ED25: unit not given here; conditions: for Anti-arrhythmic effect (Refractory period extension) ED25: effective dose which extends the refractory period by 25%; for Anti-arrhythmic effect (Refractory period extension) ED25 / Inotropic effect (Contraction force lowering) ED25: guinea pig left auricle, up to 30 minutes; for Inotropic effect (Contraction force lowering) ED25: effective dose which lowers the contractional force by 25%; for Therapeutic Breadth (III/II): ratio of inotropic ED25 to anti-arrhythmic ED25
# Source text: The experimental procedure utilized paired electrical stimulation in an adaptation of the method of […]. Pharmacol. Exp. […] In this model, the numerous known anti-arrhythmical preparations of differing structure and point of therapeutic attack all show an prolongation of the functional refractory period. The experiment additionally permits a study of the effects of different substances on the contractility of the heart muscles [Reuter und Heeg, Naunyn, Naunyn-Schmiedeberg's Arch. Pharmakol. […] Pharmakol. […] Therefore the experiment is suitable for discovering which substances have the greatest therapeutic range, that is to say, which have the greatest safety margin between the anti-arrhythmic and the negatively inotropically effective dosages. To test the substances, up to 18 and 30 individual experiments were carried out in each case. At least 3 dosages were tested each on 6 auricle preparations and the linear regression functions were calculated[[…] In column II, the […] shown and in column III, the inotropic effect is shown. In column IV, the therapeutic range of the compounds is shown.
# [3] = difference between doses producing an anti-arrhythmic effect and a negative inotropic effect; cited from earlier work
# [4] = read-out: Ventricular Tachycardia ED25
# [5] = read-out: Ventricular Tachycardia ED50
# [6] = read-out: Ventricular flutter ED25
# [7] = read-out: Ventricular flutter ED50
SMILES,"ED25 [1, 4] [mg/kg]","ED50 [1, 5] [mg/kg]","Extrasystoles ED25 ([1]; intravenous, dose allowing 25% increase in aconitine dose relative to control before extrasystoles, rats)","Ventricular flutter ED25 ([1]; intravenous, dose allowing 25% increase in aconitine dose relative to control before ventricular flutter, rats)","Extrasystoles ED50 ([1]; intravenous, dose allowing 50% increase in aconitine dose relative to control before extrasystoles, rats)","Ventricular flutter ED50 ([1]; intravenous, dose allowing 50% increase in aconitine dose relative to control before ventricular flutter, rats)",Anti-arrhythmic effect (Refractory period extension) ED25 [2],Inotropic effect (Contraction force lowering) ED25 [2],Therapeutic Breadth (III/II) [2],therapeutic range [3],ED25 ([1]; read-out: Extrasystoles ED25) [mg/kg],ED50 ([1]; read-out: Extrasystoles ED50) [mg/kg],"ED25 [1, 6] [mg/kg]","ED50 [1, 7] [mg/kg]",occurrence of heart rhythm disturbances on pre-treatment ([1]; rats)
"C1CCN2CC3CC(CN4CCCCC34)C2C1 (single isomer, unassigned) [Spartein, reference compound]",4.43,9.55,+),+),+),+),–,–,–,–,–,–,–,–,–
CCN(CC)CC(=O)Nc1c(C)cccc1C [Lidocain],–,–,–,–,–,–,0.47,0.48,1.0,narrow therapeutic range,–,–,–,–,–
c1ccc(CN(CC2=NCCN2)c2ccccc2)cc1 [Antazolin],–,–,–,–,–,–,0.164,0.094,0.6,narrow therapeutic range,–,–,–,–,–
CCC[N+]12[C@H](O)[C@@H](CC)[C@@H]3C[C@H]1[C@@H]1N(C)c4ccccc4[C@]14C[C@H]2[C@@H]3[C@H]4O [N-n-propylajmalin],–,–,–,–,–,–,0.0037,0.0015,0.4,–,–,–,–,–,–
CC(C)N1CC2CC(CN(CCc3ccccc3)C2)C1 [N-isopropyl-N'-β-phenylethyl-bispidine],1.41,2.13,–,–,–,–,0.13,0.26,2.0,–,~1.8,~2.3,1.7,2.47,prevented or at least substantially delayed
"c1ccc(CN2CC3CC(C2)CN(Cc2ccccc2)C3)cc1 [N,N'-dibenzyl-bispidine, N,N'-dibenzylbispidine]",0.87,1.23,–,–,–,–,0.034,0.07,2.0,–,1.06,1.76,1.03,1.48,prevented or at least substantially delayed
